Consider 25 compounds from US8455475B2 (Gruenenthal GmbH, priority 2009, dated 2013).

For the experiment, the target named is T1, rat B1R (bradykinin receptor 1) (Rattus norvegicus, UniProt P97583).
T1 construct: expressed in transfected cells; host or cells: CHO K1 cells
T1 sequence (P97583 1-337): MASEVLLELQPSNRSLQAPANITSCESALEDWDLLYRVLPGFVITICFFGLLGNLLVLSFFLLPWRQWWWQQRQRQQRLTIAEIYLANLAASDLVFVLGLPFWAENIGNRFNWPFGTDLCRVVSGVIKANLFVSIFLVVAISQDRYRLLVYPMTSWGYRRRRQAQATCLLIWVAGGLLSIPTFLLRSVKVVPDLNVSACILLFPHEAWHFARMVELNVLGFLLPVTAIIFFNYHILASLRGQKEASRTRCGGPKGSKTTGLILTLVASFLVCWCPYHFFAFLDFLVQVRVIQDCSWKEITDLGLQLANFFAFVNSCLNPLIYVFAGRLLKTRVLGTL
The experiment in a line: FLIPR Ca2+ assay (Fluo-4) on CHO K1 cells stably transfected with the B1R gene of the rat (rB1R cells): % inhibition at 10 μM / IC50, agonist Des-Arg9-bradykinin. The note with it: for inhibition at 10 µM: CHO-K1, rat B1R. Format: cell-based. A digest of the protocol: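 Antagonism is measured as the drop in peak Fluo-4 Ca2+ signal when the EC80 agonist follows 10–20 min compound exposure. The single-point screen uses 10 μM; IC50 uses several concentrations. Values are given as % of maximal achievable inhibition.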

With `CC(C)C(=O)N(C)C1CCc2ccc(C(=O)N3CCC4(CC3)CCN(c3ccncc3)CC4)cc21` (stereo not shown) [IND_CC-418, N,2-Dimethyl-N-[6-(9-pyridin-4-yl-3,9-diazaspiro[5.5]undecane-3-carbonyl)-2,3-dihydro-1H-inden-1-yl]-propionamide], the inhibition at 10 µM turned out to be 99%.
With `COc1cccc(F)c1CN1CCC2(CC1)CCN(C(=O)c1ccc3c(c1)C(N1Cc4c(c5c(Cl)cccc5n4C)C1=O)CC3)C2` (stereo not shown) [IND_CC-795, 8-Chloro-2-[6-[8-[(2-fluoro-6-methoxy-phenyl)-methyl]-2,8-diazaspiro[4.5]-decane-2-carbonyl]-2,3-dihydro-1H-inden-1-yl]-4-methyl-3,4-dihydro-2H-pyrrolo[3,4-b]indol-1-one], the inhibition at 10 µM was determined as 54%.
For `Cc1nn(C)c(C)c1CN1CCC2(CC1)CCN(C(=O)c1ccc3c(c1)C(NC(=O)c1cc(C(F)(F)F)ccc1Cl)CC3)C2` (stereo not shown) [IND_CC-682, 2-Chloro-5-(trifluoromethyl)-N-[6-[8-[(1,3,5-trimethyl-1H-pyrazol-4-yl)-methyl]-2,8-diazaspiro[4.5]decane-2-carbonyl]-2,3-dihydro-1H-inden-1-yl]-benzamide], the inhibition at 10 µM came out at 51%.
As to `O=C(NC1CCc2ccc(C(=O)N3CCC4(CCN(C(=O)Nc5ccc(F)c(Cl)c5)CC4)C3)cc21)c1ccccc1Cl` (stereo not shown) [IND_CC-502, 2-[3-[(2-Chloro-benzoyl)amino]-2,3-dihydro-1H-indene-5-carbonyl]-N-(3-chloro-4-fluoro-phenyl)-2,8-diazaspiro[4.5]decane-8-carboxylic acid amide], the inhibition at 10 µM amounted to 71%.
With `N#Cc1ccccc1CN1CCC2(CC1)CCN(C(=O)c1ccc3c(c1)C(N(C(=O)c1ccccc1Cl)C1CC1)CC3)C2` (stereo not shown) [IND_CC-541, 2-Chloro-N-[6-[8-[(2-cyano-phenyl)-methyl]-2,8-diazaspiro[4.5]decane-2-carbonyl]-2,3-dihydro-1H-inden-1-yl]-N-cyclopropyl-benzamide], the inhibition at 10 µM amounted to 65%.
Regarding “2-Chloro-N-[6-[9-[(1-methyl-1H-benzotriazol-5-yl)-methyl]-3,9-diazaspiro[5.5]-undecane-3-carbonyl]-2,3-dihydro-1H-inden-1-yl]-5-(trifluoromethyl)-benzamide [IND_CC-697]”, for the setting “rat B1R”, the “% Inhibition (rat B1R) at 10 μM” value was 98%.
In the case of `O=C(NC1CCc2ccc(C(=O)N3CCC4(CC3)CCN(c3ccncc3)C4)cc21)c1ccccc1F` (stereo not shown) [IND_CC-401, 2-Fluoro-N-[6-(2-pyridin-4-yl-2,8-diazaspiro[4.5]decane-8-carbonyl)-2,3-dihydro-1H-inden-1-yl]-benzamide], the inhibition at 10 µM came to 103%.
Consider `O=C(NC1CCc2ccc(C(=O)N3CCC4(CCN(Cc5ccc6ncccc6c5)CC4)C3)cc21)c1sccc1Cl` (stereo not shown) [IND_CC-570, 3-Chloro-N-[6-[8-(quinolin-6-yl-methyl)-2,8-diazaspiro[4.5]decane-2-carbonyl]-2,3-dihydro-1H-inden-1-yl]-thiophene-2-carboxylic acid amide], for which the inhibition at 10 µM was 57%.
Consider `O=C(NC1CCc2ccc(C(=O)N3CCC4(CCN(C(=O)c5ccc(F)cc5F)CC4)C3)cc21)c1ccccc1Cl` (stereo not shown) [IND_CC-576, 2-Chloro-N-[6-[8-(2,4-difluoro-benzoyl)-2,8-diazaspiro[4.5]decane-2-carbonyl]-2,3-dihydro-1H-inden-1-yl]-benzamide], for which the inhibition at 10 µM was found to be 79%.
Same read-out and setting: the same measure for `Cc1cccc(Cl)c1C(=O)NC1CCc2ccc(C(=O)N3CCC4(CCN(Cc5ccc6nccnc6c5)CC4)C3)cc21` (stereo not shown) [IND_CC-765, 2-Chloro-6-methyl-N-[6-[8-(quinoxalin-6-yl-methyl)-2,8-diazaspiro[4.5]-decane-2-carbonyl]-2,3-dihydro-1H-inden-1-yl]-benzamide]: 105%.
As for `O=C(Nc1ccc(Cl)cc1C(F)(F)F)N1CCC2(CC1)CCN(C(=O)c1ccc3c(c1)C(N(C(=O)c1ccccc1Cl)C1CC1)CC3)C2` (stereo not shown) [IND_CC-714, 2-[3-[(2-Chloro-benzoyl)-cyclopropyl-amino]-2,3-dihydro-1H-indene-5-carbonyl]-N-[4-chloro-2-(trifluoromethyl)-phenyl]-2,8-diazaspiro[4.5]decane-8-carboxylic acid amide], the inhibition at 10 µM was 51%.
Regarding `O=C(NC1CCc2ccc(C(=O)N3CCC4(CCN(Cc5ccc6nccnc6c5)CC4)C3)cc21)c1c(F)cccc1Cl` (stereo not shown) [IND_CC-775, 2-Chloro-6-fluoro-N-[6-[8-(quinoxalin-6-yl-methyl)-2,8-diazaspiro[4.5]decane-2-carbonyl]-2,3-dihydro-1H-inden-1-yl]-benzamide], the inhibition at 10 µM amounted to 98%.
In the case of `O=C(NC1CCc2ccc(C(=O)N3CCC4(CCN(Cc5csnn5)CC4)C3)cc21)c1ccccc1Cl` (stereo not shown) [IND_CC-555, 2-Chloro-N-[6-[8-([1,2,3]thiadiazol-4-yl-methyl)-2,8-diazaspiro[4.5]decane-2-carbonyl]-2,3-dihydro-1H-inden-1-yl]-benzamide], the inhibition at 10 µM was 91%.
On to `O=C(NC1CCc2ccc(C(=O)N3CCC4(CCN(Cc5ccccn5)CC4)CC3)cc21)c1cc(Cl)ccc1F` (stereo not shown) [IND_CC-626, 5-Chloro-2-fluoro-N-[6-[9-(pyridin-2-yl-methyl)-3,9-diazaspiro[5.5]undecane-3-carbonyl]-2,3-dihydro-1H-inden-1-yl]-benzamide], for which the inhibition at 10 µM was 55%.
As for `O=C(c1ccc2c(c1)C(N(C(=O)c1ccccc1Cl)C1CC1)CC2)N1CCC2(CCN(Cc3cc(F)ccc3F)CC2)C1` (stereo not shown) [IND_CC-522, 2-Chloro-N-cyclopropyl-N-[6-[8-[(2,5-difluoro-phenyl)-methyl]-2,8-diazaspiro[4.5]decane-2-carbonyl]-2,3-dihydro-1H-inden-1-yl]-benzamide], the inhibition at 10 µM turned out to be 55%.
Consider `O=C(NC1CCc2ccc(CC(=O)N3CCC4(CCN(Cc5ccc6ncccc6c5)CC4)C3)cc21)c1ccccc1Cl` (stereo not shown) [IND_CC-804, 2-Chloro-N-[6-[2-oxo-2-[8-(quinolin-6-yl-methyl)-3,8-diazaspiro[4.5]decan-3-yl]-ethyl]-2,3-dihydro-1H-inden-1-yl]-benzamide], for which the inhibition at 10 µM was found to be 61%.
Regarding `O=C(NC1CCc2ccc(C(=O)N3CCC4(CCN(Cc5ccc(F)c(F)c5)CC4)C3)cc21)c1cc(Cl)ccc1F` (stereo not shown) [IND_CC-621, 5-Chloro-N-[6-[8-[(3,4-difluoro-phenyl)-methyl]-2,8-diazaspiro[4.5]decane-2-carbonyl]-2,3-dihydro-1H-inden-1-yl]-2-fluoro-benzamide], the inhibition at 10 µM was determined as 67%.
For the compound `O=C(NCc1ccc(Cl)c(Cl)c1)N1CCC2(CC1)CCN(C(=O)c1ccc3c(c1)C(N(C(=O)c1ccccc1Cl)C1CC1)CC3)C2` (stereo not shown) [IND_CC-721, 2-[3-[(2-Chloro-benzoyl)-cyclopropyl-amino]-2,3-dihydro-1H-indene-5-carbonyl]-N-[(3,4-dichlorophenyl)-methyl]-2,8-diazaspiro[4.5]decane-8-carboxylic acid amide], the inhibition at 10 µM came to 70%.
Consider `O=C(NC1CCc2ccc(C(=O)N3CCC4(CC3)CCN(c3ccncc3)CC4)cc21)c1c(F)cccc1C(F)(F)F` (stereo not shown) [IND_CC-376, 2-Fluoro-N-[6-(9-pyridin-4-yl-3,9-diazaspiro[5.5]undecane-3-carbonyl)-2,3-dihydro-1H-inden-1-yl]-6-(trifluoromethyl)-benzamide], for which the inhibition at 10 µM was determined as 102%.
For `CN(C1CCc2ccc(C(=O)N3CCC4(CC3)CCN(c3ccncc3)CC4)cc21)S(=O)(=O)c1ccc(Cl)cc1Cl` (stereo not shown) [IND_CC-324, 2,4-Dichloro-N-methyl-N-[6-(9-pyridin-4-yl-3,9-diazaspiro[5.5]undecane-3-carbonyl)-2,3-dihydro-1H-inden-1-yl]-benzenesulfonic acid amide], the inhibition at 10 µM is 98%.
Consider `CC1(C)Cc2ccc(C(=O)N3CCC4(CC3)CCN(c3ccncc3)CC4)cc2C1NS(=O)(=O)c1cccc(C(F)(F)F)c1` (stereo not shown) [IND_CC-341, N-[2,2-Dimethyl-6-(9-pyridin-4-yl-3,9-diazaspiro[5.5]undecane-3-carbonyl)-1,3-dihydro-inden-1-yl]-3-(trifluoromethyl)-benzenesulfonic acid amide], for which the inhibition at 10 µM turned out to be 87%.
For `CN(C(=O)c1ccccc1Cl)C1CCc2ccc(C(=O)N3CCC4(CCN(Cc5cc(F)ccc5F)CC4)C3)cc21` (stereo not shown) [IND_CC-550, 2-Chloro-N-[6-[8-[(2,5-difluoro-phenyl)-methyl]-2,8-diazaspiro[4.5]decane-2-carbonyl]-2,3-dihydro-1H-inden-1-yl]-N-methyl-benzamide], the inhibition at 10 µM was 62%.
Consider `CC(C)CC(=O)NC1CCc2ccc(C(=O)N3CCC4(CCN(c5ccncc5)CC4)C3)cc21` (stereo not shown) [IND_CC-409, 3-Methyl-N-[6-(8-pyridin-4-yl-2,8-diazaspiro[4.5]decane-2-carbonyl)-2,3-dihydro-1H-inden-1-yl]-butyramide], for which the inhibition at 10 µM is 102%.
The same measure, in the same setting: to `CC(C)C(=O)NC1CCc2ccc(C(=O)N3CCC4(CCN(c5ccncc5)CC4)C3)cc21` (stereo not shown) [IND_CC-419, 2-Methyl-N-[6-(8-pyridin-4-yl-2,8-diazaspiro[4.5]decane-2-carbonyl)-2,3-dihydro-1H-inden-1-yl]-propionamide] belongs 101%; to `O=C(NC1CCc2ccc(C(=O)N3CCC4(CCN(c5ccncc5)CC4)C3)cc21)c1cc(Cl)ccc1C(F)(F)F` (stereo not shown) [IND_CC-316, 5-Chloro-N-[6-(8-pyridin-4-yl-2,8-diazaspiro[4.5]decane-2-carbonyl)-2,3-dihydro-1H-inden-1-yl]-2-(trifluoromethyl)-benzamide], 100%.
